Measured values published in US7119229B2 (priority 2001, dated 2006).
Like-named read-outs stand apart in the source and are kept apart here.

Tests used:
TA1535 = system: TA1535
Procedure: (§1) This assay is carried out to test mutagenicity of chemical substances using histidine auxotrophic strains that are one of Salmonella Typhimurium mutants. […] When various mutagens are added to the culture medium, only revertants generated by reverse mutation survive.
(§2) Ames test was carried out using […]. […] After incubation, the number of revertant colonies was counted. 3 plates were prepared for each test and the average was calculated.

TA98 = system: TA98
Procedure: as §1, §2

TA100 = system: TA100
Procedure: as §1, §2

TA1537 = experiment: Reverse mutation assay (Ames test), TA1537
Procedure: as §1, §2

ICR mice [1] = experiment: Oral administration toxicity assay; conditions: for Days for the test (death) Total: deaths/mice; for Days for the Test (death) 4: day 4
ICR mice [2] = experiment: Acute (intravenous administration) toxicity assay; conditions: for Days for the test (death) 2: day 2; for Days for the test (death) Total: deaths/mice; for Days for the test (death) 1: day 1
[3] = system: WP2 uvrA strains (tryptophan auxotrophic strains); experiment: Reverse mutation assay (Ames test), E. coli WP2 uvrA
Procedure: as §1, §2

[4] = system: BALB/c mouse spleen cell (responding) and DBA/2 mouse spleen cell (stimulating); assay type: cell-based
Procedure: MLR tests were carried out to determine the immunosuppressive effect of an immunosuppressive candidate material. When a responding cell (BALB/c mouse spleen cell) and a stimulating cell (DBA/2 mouse spleen cell) were cultured separately, the cells grew little. On the contrary, when the cells were simultaneously cultured, the cells were proliferated due to induction of an antigen-antibody reaction. The proliferated cells were treated with the immunosuppressive candidate material for measurement of the proliferation inhibitory extent.
After culturing for 72 hours at a CO2 incubator, a 20 μl MTS solution was added to each well, followed by further culturing for 2 to 4 hours and measuring OD at […] by using ELISA.

[5] = TA1525 (so in the source), 317.5 μg/Plate
[6] = TA1525 (so in the source), 625 μg/Plate
[7] = TA1525 (so in the source), 1250 μg/Plate
[8] = TA1525 (so in the source), 2500 μg/Plate
[9] = TA1525 (so in the source), 5000 μg/Plate
[10] = Positive control group, TA1537, 50 μg/Plate
[11] = Positive control group, TA1535, 0.5 μg/Plate
[12] = Positive control group, TA100, 0.5 μg/Plate

COc1cc2c(c(OC)c1OC)-c1ccc(OC)c(=O)cc1[C@@H](NC(C)=O)CC2 [Colchicine]
Colony/Plate S-9 Mixture (+) (TA1535; [5]): 13 Colony/Plate
Colony/Plate S-9 Mixture (−) (TA1535; [5]): 18 Colony/Plate
Colony/Plate S-9 Mixture (+) (TA1535; [6]): 13 Colony/Plate
Colony/Plate S-9 Mixture (−) (TA1535; [6]): 15 Colony/Plate
Colony/Plate S-9 Mixture (+) (TA1535; [7]): 7 Colony/Plate
Colony/Plate S-9 Mixture (−) (TA1535; [7]): 17 Colony/Plate
Colony/Plate S-9 Mixture (+) (TA1535; [8]): 12 Colony/Plate
Colony/Plate S-9 Mixture (−) (TA1535; [8]): 17 Colony/Plate
Colony/Plate S-9 Mixture (+) (TA1535; [9]): 10 Colony/Plate
Colony/Plate S-9 Mixture (−) (TA1535; [9]): 13 Colony/Plate
Colony/Plate S-9 Mixture (+) (TA98; TA98, 317.5 μg/Plate): 37 Colony/Plate
Colony/Plate S-9 Mixture (−) (TA98; TA98, 317.5 μg/Plate): 29 Colony/Plate
Colony/Plate S-9 Mixture (+) (TA98; TA98, 625 μg/Plate): 32 Colony/Plate
Colony/Plate S-9 Mixture (−) (TA98; TA98, 625 μg/Plate): 29 Colony/Plate
Colony/Plate S-9 Mixture (+) (TA98; TA98, 1250 μg/Plate): 33 Colony/Plate
Colony/Plate S-9 Mixture (−) (TA98; TA98, 1250 μg/Plate): 29 Colony/Plate
Colony/Plate S-9 Mixture (+) (TA98; TA98, 2500 μg/Plate): 37 Colony/Plate
Colony/Plate S-9 Mixture (−) (TA98; TA98, 2500 μg/Plate): 24 Colony/Plate
Colony/Plate S-9 Mixture (+) (TA98; TA98, 5000 μg/Plate): 28 Colony/Plate
Colony/Plate S-9 Mixture (−) (TA98; TA98, 5000 μg/Plate): 26 Colony/Plate
Colony/Plate S-9 Mixture (+) (TA100; TA100, 317.5 μg/Plate): 79 Colony/Plate
Colony/Plate S-9 Mixture (−) (TA100; TA100, 317.5 μg/Plate): 115 Colony/Plate
Colony/Plate S-9 Mixture (+) (TA100; TA100, 625 μg/Plate): 76 Colony/Plate
Colony/Plate S-9 Mixture (−) (TA100; TA100, 625 μg/Plate): 110 Colony/Plate
Colony/Plate S-9 Mixture (+) (TA100; TA100, 1250 μg/Plate): 100 Colony/Plate
Colony/Plate S-9 Mixture (−) (TA100; TA100, 1250 μg/Plate): 112 Colony/Plate
Colony/Plate S-9 Mixture (+) (TA100; TA100, 2500 μg/Plate): 91 Colony/Plate
Colony/Plate S-9 Mixture (−) (TA100; TA100, 2500 μg/Plate): 115 Colony/Plate
Colony/Plate S-9 Mixture (+) (TA100; TA100, 5000 μg/Plate): 78 Colony/Plate
Colony/Plate S-9 Mixture (−) (TA100; TA100, 5000 μg/Plate): 108 Colony/Plate
Colony/Plate S-9 Mixture (+) (TA1537; TA1537, 317.5 μg/Plate): 20 Colony/Plate
Colony/Plate S-9 Mixture (−) (TA1537; TA1537, 317.5 μg/Plate): 17 Colony/Plate
Colony/Plate S-9 Mixture (+) (TA1537; TA1537, 625 μg/Plate): 18 Colony/Plate
Colony/Plate S-9 Mixture (−) (TA1537; TA1537, 625 μg/Plate): 14 Colony/Plate
Colony/Plate S-9 Mixture (+) (TA1537; TA1537, 1250 μg/Plate): 18 Colony/Plate
Colony/Plate S-9 Mixture (−) (TA1537; TA1537, 1250 μg/Plate): 10 Colony/Plate
Colony/Plate S-9 Mixture (+) (TA1537; TA1537, 2500 μg/Plate): 21 Colony/Plate
Colony/Plate S-9 Mixture (−) (TA1537; TA1537, 2500 μg/Plate): 8 Colony/Plate
Colony/Plate S-9 Mixture (+) (TA1537; TA1537, 5000 μg/Plate): 21 Colony/Plate
Colony/Plate S-9 Mixture (−) (TA1537; TA1537, 5000 μg/Plate): 9 Colony/Plate
Days for the test (death) Total (ICR mice [1]; 5 mg/kg): 0/5
Days for the test (death) Total (ICR mice [1]; 10 mg/kg): 0/5
Days for the Test (death) 3 (ICR mice [1]; 25 mg/kg, day 3): 3
Days for the Test (death) 4 (ICR mice [1]; 25 mg/kg): 1
Days for the test (death) Total (ICR mice [1]; 25 mg/kg): 4/5
Days for the test (death) 2 (ICR mice [1]; 50 mg/kg, day 2): 3
Days for the Test (death) 4 (ICR mice [1]; 50 mg/kg): 1
Days for the Test (death) 5 (ICR mice [1]; 50 mg/kg, day 5): 1
Days for the test (death) Total (ICR mice [1]; 50 mg/kg): 5/5
Days for the test (death) 2 (ICR mice [2]; 2 mg/kg): 3
Days for the Test (death) 3 (ICR mice [2]; 2 mg/kg, day 3): 1
Days for the test (death) 6 (ICR mice [2]; 2 mg/kg, day 6): 1
Days for the test (death) Total (ICR mice [2]; 2 mg/kg): 5/5
Days for the test (death) 1 (ICR mice [2]; 5 mg/kg): 1
Days for the test (death) 2 (ICR mice [2]; 5 mg/kg): 4
Days for the test (death) Total (ICR mice [2]; 5 mg/kg): 5/5
Days for the test (death) 1 (ICR mice [2]; 10 mg/kg): 4
Days for the test (death) 2 (ICR mice [2]; 10 mg/kg): 1
Days for the test (death) Total (ICR mice [2]; 10 mg/kg): 5/5
Colony/Plate S-9 Mixture (+) ([3]; 317.5 μg/Plate): 11 Colony/Plate
Colony/Plate S-9 Mixture (−) ([3]; 317.5 μg/Plate): 10 Colony/Plate
Colony/Plate S-9 Mixture (+) ([3]; 625 μg/Plate): 14 Colony/Plate
Colony/Plate S-9 Mixture (−) ([3]; 625 μg/Plate): 6 Colony/Plate
Colony/Plate S-9 Mixture (+) ([3]; 1250 μg/Plate): 14 Colony/Plate
Colony/Plate S-9 Mixture (−) ([3]; 1250 μg/Plate): 11 Colony/Plate
Colony/Plate S-9 Mixture (+) ([3]; 2500 μg/Plate): 12 Colony/Plate
Colony/Plate S-9 Mixture (−) ([3]; 2500 μg/Plate): 10 Colony/Plate
Colony/Plate S-9 Mixture (+) ([3]; 5000 μg/Plate): 8 Colony/Plate
Colony/Plate S-9 Mixture (−) ([3]; 5000 μg/Plate): 11 Colony/Plate

Nc1c2ccccc2nc2ccccc12 [Compound 9-AA, 9-aminoacridine]
Colony/Plate S-9 Mixture (+) (TA1537; [10]): 588 Colony/Plate
Colony/Plate S-9 Mixture (−) (TA1537; [10]): 175 Colony/Plate

COc1cc2c(c(OC)c1OC)-c1ccc(SC)c(=O)cc1[C@@H](NC(=O)c1cccc(CCl)c1)CC2 [Compound 9]
immunosuppressive effect [4]: good immunosuppressive effect

COc1cc2c(c(OC)c1OC)-c1ccc(S(C)(=O)=O)c(=O)cc1C(NC(=O)CCCO[N+](=O)[O-])CC2 (stereo not drawn) [Compound 10, 4-nitrooxy-N-(1,2,3-trimethoxy-10-methylsulfonyl-9-oxo-5,6,7,9-tetrahydro-benzo[a]heptarene-7-yl)-butylamide]
immunosuppressive effect ([4]; MLR, FIG. 1): good immunosuppressive effect

COc1cc2c(c(OC)c1OC)-c1ccc(SC)c(=O)cc1[C@@H](NC(=O)c1ccc(CO[N+](=O)[O-])cc1)CC2 [Compound 11]
immunosuppressive effect [4]: good immunosuppressive effect

[N-]=[N+]=[N-] [Sodium azide, sodium azide]
Colony/Plate S-9 Mixture (+) (TA1535; [11]): 444 Colony/Plate
Colony/Plate S-9 Mixture (−) (TA1535; [11]): 279 Colony/Plate
Colony/Plate S-9 Mixture (+) (TA100; [12]): 616 Colony/Plate
Colony/Plate S-9 Mixture (−) (TA100; [12]): 453 Colony/Plate
